# Data as given in patent publication US20240156800A1, “EP300 DEGRADER AND USES THEREOF IN NEUROBLASTOMA” (DANA-FARBER CANCER INSTITUTE, INC., priority 2021, published 2024).
# What was measured:
# EP300 = molecular target: T1, EP300 (Homo sapiens, UniProt Q09472); assay: SILAC mass spectrometry of the nuclear proteome of Kelly cells (EP300); format: cell-based; details: 500 nM, 24 h, nuclear extract, p=3.3×10^−5
# T1 construct: Cells growing in culture were lysed for whole cell lysates; endogenous in cells; host or cells: Kelly, NGP, SIMA, BE2C neuroblastoma cells; Kelly xenografts in NSG mice
# T1 sequence (Q09472 whole entry): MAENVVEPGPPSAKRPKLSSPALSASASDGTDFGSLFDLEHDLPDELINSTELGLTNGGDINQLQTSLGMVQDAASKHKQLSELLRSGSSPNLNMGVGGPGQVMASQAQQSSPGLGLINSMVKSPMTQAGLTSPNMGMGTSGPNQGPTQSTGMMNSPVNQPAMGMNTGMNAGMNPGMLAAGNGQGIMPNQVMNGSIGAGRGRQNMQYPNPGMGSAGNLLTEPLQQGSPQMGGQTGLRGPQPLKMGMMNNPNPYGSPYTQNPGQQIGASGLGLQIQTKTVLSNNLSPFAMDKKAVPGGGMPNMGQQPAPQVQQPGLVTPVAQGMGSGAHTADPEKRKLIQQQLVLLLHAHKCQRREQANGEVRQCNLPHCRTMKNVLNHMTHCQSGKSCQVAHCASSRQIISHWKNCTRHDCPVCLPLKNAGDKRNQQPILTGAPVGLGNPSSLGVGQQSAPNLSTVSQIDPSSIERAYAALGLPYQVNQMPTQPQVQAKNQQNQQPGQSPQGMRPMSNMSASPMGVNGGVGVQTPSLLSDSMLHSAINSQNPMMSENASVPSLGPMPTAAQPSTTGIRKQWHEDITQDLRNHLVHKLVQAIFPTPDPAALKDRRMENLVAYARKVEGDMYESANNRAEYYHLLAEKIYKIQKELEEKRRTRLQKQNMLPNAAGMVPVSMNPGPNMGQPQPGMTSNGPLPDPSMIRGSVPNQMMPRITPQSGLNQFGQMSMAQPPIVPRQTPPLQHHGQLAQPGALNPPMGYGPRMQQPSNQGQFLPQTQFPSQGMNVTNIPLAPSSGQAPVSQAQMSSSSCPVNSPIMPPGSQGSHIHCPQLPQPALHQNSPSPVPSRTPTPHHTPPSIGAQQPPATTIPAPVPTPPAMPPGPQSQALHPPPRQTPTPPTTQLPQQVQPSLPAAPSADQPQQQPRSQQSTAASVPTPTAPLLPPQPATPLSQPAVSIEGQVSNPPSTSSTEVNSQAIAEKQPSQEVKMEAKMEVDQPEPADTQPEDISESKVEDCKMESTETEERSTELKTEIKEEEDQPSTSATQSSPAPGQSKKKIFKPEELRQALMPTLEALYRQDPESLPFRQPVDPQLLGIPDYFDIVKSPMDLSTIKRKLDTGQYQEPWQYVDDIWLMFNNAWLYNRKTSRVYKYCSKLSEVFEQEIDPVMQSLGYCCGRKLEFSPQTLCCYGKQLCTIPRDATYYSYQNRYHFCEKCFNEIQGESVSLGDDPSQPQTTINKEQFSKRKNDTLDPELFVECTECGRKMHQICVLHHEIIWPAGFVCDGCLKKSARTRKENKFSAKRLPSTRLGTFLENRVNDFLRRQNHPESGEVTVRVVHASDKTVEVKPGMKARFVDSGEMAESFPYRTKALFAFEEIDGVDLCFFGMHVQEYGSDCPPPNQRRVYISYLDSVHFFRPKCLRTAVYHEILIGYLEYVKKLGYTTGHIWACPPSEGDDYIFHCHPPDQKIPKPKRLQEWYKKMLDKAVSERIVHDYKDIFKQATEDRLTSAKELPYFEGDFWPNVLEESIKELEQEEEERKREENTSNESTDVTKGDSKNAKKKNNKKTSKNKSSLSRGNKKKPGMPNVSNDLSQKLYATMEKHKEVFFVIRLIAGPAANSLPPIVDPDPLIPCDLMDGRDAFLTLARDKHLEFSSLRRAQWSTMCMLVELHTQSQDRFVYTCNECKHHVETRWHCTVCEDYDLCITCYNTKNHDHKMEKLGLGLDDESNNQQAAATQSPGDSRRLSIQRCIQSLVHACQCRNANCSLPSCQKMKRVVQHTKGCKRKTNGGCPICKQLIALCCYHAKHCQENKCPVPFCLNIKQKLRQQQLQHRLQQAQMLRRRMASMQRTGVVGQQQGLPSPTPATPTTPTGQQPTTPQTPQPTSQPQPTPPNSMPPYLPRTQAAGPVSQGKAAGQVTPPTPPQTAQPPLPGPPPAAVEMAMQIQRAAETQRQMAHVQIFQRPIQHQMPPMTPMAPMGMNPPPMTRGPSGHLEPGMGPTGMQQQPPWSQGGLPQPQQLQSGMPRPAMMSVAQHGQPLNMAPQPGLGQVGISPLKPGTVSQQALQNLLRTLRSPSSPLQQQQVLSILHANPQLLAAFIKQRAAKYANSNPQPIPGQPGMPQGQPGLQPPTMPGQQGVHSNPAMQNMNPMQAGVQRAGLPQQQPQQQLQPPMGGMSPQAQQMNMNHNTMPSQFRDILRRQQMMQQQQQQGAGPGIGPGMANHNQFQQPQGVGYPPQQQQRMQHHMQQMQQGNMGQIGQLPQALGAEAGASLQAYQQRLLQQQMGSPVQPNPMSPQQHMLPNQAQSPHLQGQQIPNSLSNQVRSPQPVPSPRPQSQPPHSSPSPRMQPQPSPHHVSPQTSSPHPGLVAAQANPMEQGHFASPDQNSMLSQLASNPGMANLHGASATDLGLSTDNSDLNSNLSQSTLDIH
# Description: Because JQAD1 interacted preferentially with both EP300 and CRBN, whether JQAD1 preferentially induces degradation of EP300 compared to CBP in MYCN-amplified neuroblastoma cells was examined. […] To further examine the specificity of JQAD1 for EP300, an analysis of the effects of JQAD1 in stable isotope labeling by amino acids in cell culture (SILAC)-labelled Kelly cells was performed (FIG. 3F). Kelly cells were cultured with SILAC media containing heavy or light-labelled arginine and lysine. Heavy labelled cells were treated with 500 nM JQAD1, and light-labelled cells treated with dimethyl sulfoxide (DMSO) for 24 h, prior to nuclear extraction and protein lysis. […] Protein abundance was then analyzed by mass spectrometry, to determine global changes in the nuclear proteome. […] To expand upon these findings, three NB cell lines, Kelly, NGP and SIMA, which have high levels of CRBN (e.g., protein or mRNA) (FIG. 8C), were treated with JQAD, and the effects on specific proteins were measured by western blotting. […] Peptides were detected, isolated, and fragmented to produce a tandem mass spectrum of specific fragment ions for each peptide. Peptide sequences and protein identity were determined by matching protein databases with the acquired fragmentation pattern by Sequest® (Thermo Fisher Scientific) (Eng et al. J. Am. Soc. Mass Spectrom. 5:976-89 (1994)). […]
# [1] = system: Kelly, NGP and BE2C NB cells; assay: Propidium iodide DNA flow cytometry (cell cycle, sub-G1); format: cell-based, human; details: Kelly and NGP cells
# Description: Cells were infected with lentiviruses encoding single guide RNAs (sgRNAs) or treated with compounds as described for the noted length of time. Cells were then liberated from adhesion to the plate using a sterile spatula (Coming®) followed by centrifugation, aspiration of media, and resuspension in hypotonic citrate-propidium iodide (PI) solution for 30 minutes at 37° C. (Tate et al. Cytometry 4:211-215 (1983)). Nuclei were stabilized using 5M NaCl prior to analysis on a FACSAria™ II (BD Biosciences). Analysis of cell cycle phases was performed using FlowJo® v10.7 (BD Biosciences).
# MYCN = assay: Western blotting of MYCN (whole lysates and chromatin extracts); format: cell-based, human; details: Kelly cells, 0.5 and 1 μM, 24 h, chromatin extracts
# Description: Cells growing in culture were lysed for whole cell lysates as described in Durbin et al. Nat. Genet. 50:1240-1246 (2018) and Wang et al. Nat. Commun. 10:5622 (2019). Nuclear lysates were prepared using the NE-PER® nuclear lysate kit (Thermo Scientific™) according to the manufacturer's protocol. Chromatin lysates were prepared with the total histone extraction kit (Epigentek). Briefly, equivalent amounts of protein were resolved by western blotting using 4-12% Bis-Tris NuPAGE™ gels (Thermo-Fisher Scientific) prior to transfer, and immunoblotting using primary antibodies to: MYCN (1:1000, Cell Signaling Technology®), H3K27ac (1:1000, Abcam), total H3 (1:1000, Cell Signaling Technology®), EP300 (1:1000, Abcam), CBP (1:500, Cell Signaling Technology®), Cas9 (1:1000, Cell Signaling Technology®), cleaved-PARP1 (1:1000, Cell Signaling Technology), cleaved Caspase-3 (1:1000, Cell Signaling Technology®), β-actin (1:1000, Cell Signaling Technology®), GATA3 (1:1000, EMD Millipore™), TFAP2β (1:1000, Cell Signaling Technology®), Vinculin (1:1000, EMD Millipore™), CRBN (1:1000, Cell Signaling Technology®), HAND2 (1:1000, Santa Cruz Biotechnology). Secondary antibodies were horseradish peroxidase (HRP)-conjugated anti-rabbit or anti-mouse (1:5000, Santa Cruz Biotechnology), incubated prior to exposure to enhanced chemiluminescence reagents (GE, Amersham). For immunoprecipitation, equal amounts of protein were diluted in buffer C as described in Mansour et al. Science 346:1373-1377 (2014) and incubated with antibodies covalently conjugated to Dynabeads™ M-270 beads (Thermo-Fisher Scientific) overnight according to the manufacturer's directions. Antibodies used included: H3K27ac, EP300 (Abcam), CBP, TFAP2β (Cell Signaling Technology®), rabbit immunoglobulin G (IgG) (Santa Cruz Biotechnology®). Immunoprecipitated protein was isolated as per the manufacturer's directions and subjected to western blotting, as described above, or mass spectrometry.
smiles,measurement,setting,value
"C[C@H](N(Cc1ccc(F)cc1)C(=O)CN1C(=O)O[C@@]2(CCc3cc(NC(=O)CCCCCCCCCCCNc4ccc5c(c4)C(=O)N(C4CCC(=O)NC4=O)C5=O)ccc32)C1=O)C(F)(F)F (stereo partly drawn) [JQAD1, 12-((2-(2,6-dioxopiperidin-3-yl)-1,3-dioxoisoindolin-5-yl)amino)-N-((R)-3′-(2-((4-fluorobenzyl)((S)-1,1,1-trifluoropropan-2-yl)amino)-2-oxoethyl)-2′,4′-dioxo-2,3-dihydrospiro[indene-1,5′-oxazolidin]-5-yl)dodecanamide]",EP300 protein abundance,EP300,significantly decreased
same,cell cycle / subG1 effect,[1],induction of a subG1 peak
same,chromatin-bound MYCN,MYCN,loss of both EP300 and chromatin-bound MYCN proteins
